How the values were obtained:
[1] = test system: normal and cancerous breast cells; conditions: in vitro; cited from earlier work
[2] = in vivo; cited from earlier work
[3] = Effects of pH on isomerization at 40° C. (Example 5); type: physicochemical
[4] = Initial E/Z 37/63, Buffer pH 2.2, Final pH 4, Day
[5] = Initial E/Z 37/63, Buffer pH 2.2, Final pH 4, Day 8
[6] = Initial E/Z 37/63, Buffer pH 2.2, Final pH 4, Mo. 1
[7] = Initial E/Z 37/63, Buffer pH 2.2, Final pH 4, Mo. 2
[8] = Initial E/Z 37/63, Buffer pH 2.2, Final pH 4, Mo. 3
[9] = Initial E/Z 37/63, Buffer pH 4, Final pH 6, Day
[10] = Initial E/Z 37/63, Buffer pH 4, Final pH 6, Day 8
[11] = Initial E/Z 37/63, Buffer pH 4, Final pH 6, Mo. 1
[12] = Initial E/Z 37/63, Buffer pH 4, Final pH 6, Mo. 2
[13] = Initial E/Z 37/63, Buffer pH 4, Final pH 6, Mo. 3
[14] = Initial E/Z 37/63, Buffer pH 4, Final pH 6, Time 0
[15] = Initial E/Z 37/63, Buffer pH 6, Final pH 7, Day
[16] = Initial E/Z 37/63, Buffer pH 6, Final pH 7, Day 8
[17] = Initial E/Z 37/63, Buffer pH 6, Final pH 7, Mo. 1
[18] = Initial E/Z 37/63, Buffer pH 6, Final pH 7, Mo. 2
[19] = Initial E/Z 37/63, Buffer pH 6, Final pH 7, Mo. 3
[20] = Initial E/Z 37/63, Buffer pH 6, Final pH 7, Time 0
[21] = Initial E/Z 37/63, Buffer pH 8, Final pH 9, Day
[22] = Initial E/Z 37/63, Buffer pH 8, Final pH 9, Day 8
[23] = Initial E/Z 37/63, Buffer pH 8, Final pH 9, Mo. 1
[24] = Initial E/Z 37/63, Buffer pH 8, Final pH 9, Mo. 2
[25] = Initial E/Z 37/63, Buffer pH 8, Final pH 9, Mo. 3
[26] = Initial E/Z 37/63, Buffer pH 8, Final pH 9, Time 0
[27] = Initial E/Z 37/63, Buffer pH 10, Final pH 12, Day
[28] = Initial E/Z 37/63, Buffer pH 10, Final pH 12, Day 8
[29] = Initial E/Z 37/63, Buffer pH 10, Final pH 12, Mo. 1
[30] = Initial E/Z 37/63, Buffer pH 10, Final pH 12, Mo. 2
[31] = Initial E/Z 37/63, Buffer pH 10, Final pH 12, Mo. 3

Compound: CCC(=C(c1ccc(O)cc1)c1ccc(OCCN(C)C)cc1)c1ccccc1 [4-hydroxy tamoxifen, 1-[4-(2-N-dimethylaminoethoxy)phenyl]-1-(4-hydroxyphenyl)-2-phenylbut-1-ene]
- growth of both normal and cancerous breast cells [1]: inhibits the growth
- distribution after percutaneous administration [2]: can concentrate in local breast tumors, with very little systemic distribution
- effect of pH on the equilibration process [3]: Low and high pH speed the equilibration process
- % E [3, 4]: 48.5%
- % Z [3, 4]: 51.5%
- % E [3, 5]: 52.5%
- % Z [3, 5]: 47.5%
- % E [3, 6]: 48.2%
- % Z [3, 6]: 51.8%
- % E [3, 7]: 48.0%
- % Z [3, 7]: 52.0%
- % E [3, 8]: 48.0%
- % Z [3, 8]: 52.0%
- % Z ([3]; Initial E/Z 37/63, Buffer pH 2.2, Final pH 4, Time 0): 37.1%
- % E [3, 9]: 51.0%
- % Z [3, 9]: 49.0%
- % E [3, 10]: 56.8%
- % Z [3, 10]: 43.2%
- % E [3, 11]: 49.4%
- % Z [3, 11]: 50.6%
- % E [3, 12]: 49.0%
- % Z [3, 12]: 51.0%
- % E [3, 13]: 48.5%
- % Z [3, 13]: 51.5%
- % E [3, 14]: 62.9%
- % Z [3, 14]: 37.1%
- % E [3, 15]: 58.0%
- % Z [3, 15]: 42.0%
- % E [3, 16]: 61.1%
- % Z [3, 16]: 38.9%
- % E [3, 17]: 55.8%
- % Z [3, 17]: 44.2%
- % E [3, 18]: 52.0%
- % Z [3, 18]: 48.0%
- % E [3, 19]: 50.4%
- % Z [3, 19]: 49.6%
- % E [3, 20]: 62.5%
- % Z [3, 20]: 37.5%
- % E [3, 21]: 56.9%
- % Z [3, 21]: 43.1%
- % E [3, 22]: 60.6%
- % Z [3, 22]: 39.4%
- % E [3, 23]: 54.2%
- % Z [3, 23]: 45.8%
- % E [3, 24]: 50.8%
- % Z [3, 24]: 49.2%
- % E [3, 25]: 49.9%
- % Z [3, 25]: 50.1%
- % E [3, 26]: 62.7%
- % Z [3, 26]: 37.3%
- % E [3, 27]: 49.0%
- % Z [3, 27]: 51.0%
- % E [3, 28]: 48.5%
- % Z [3, 28]: 51.5%
- % E [3, 29]: 49.0%
- % Z [3, 29]: 51.0%
- % E [3, 30]: 48.8%
- % Z [3, 30]: 51.2%
- % E [3, 31]: 49.0%
- % Z [3, 31]: 51.0%
- % E ([3]; Initial E/Z 37/63, Buffer pH 10, Final pH 12, Time 0): 63.4%
